Experimental data published in patent US8163793B2, “Proline derivatives” (Hoffman-La Roche Inc., priority 2009, dated 2012).
Where a name gives a salt, the structure may show the parent alone.

Assays:
Cathepsin S = Cathepsin S (UniProt P25774); assay: Cathepsin enzyme inhibition assay (fluorogenic peptide substrate Z-Val-Val-Arg-AMC), Cathepsin S; format: biochemical, human and mouse; settings: enzyme 1 nM, substrate 20 μM, pH 6.5; read-out: CatS IC50
Summary of the method: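 Human or mouse cathepsin S (1 nM) was run in 100 mM potassium phosphate pH 6.5 with 5 mM EDTA, 0.001% Triton X-100 and 5 mM DTT. The rise in AMC fluorescence from cleavage was measured, and IC50 values were calculated by standard methods and expressed in μM.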

Cat L = Cat L (UniProt P07711); assay: Cathepsin enzyme inhibition assay (fluorogenic peptide substrate Z-Val-Val-Arg-AMC), Cathepsin L; format: biochemical, human and mouse; settings: enzyme 1 nM, substrate 20 μM, pH 6.5; read-out: CatL IC50
Summary of the method: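 Cathepsin L at 1 nM was mixed with compound, then started with 20 μM Z-Val-Val-Arg-AMC in pH 6.5 potassium phosphate with EDTA, Triton X-100 and 5 mM DTT. AMC fluorescence (ex 360/em 465 nm) was followed over 20 min. IC50 is given in μM.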

IC50 (Cathepsin S) [nM] | IC50 (Cat L) [nM] | SMILES
55 | ≥ 25000 | N#CC1(NC(=O)[C@@H]2C[C@@H](S(=O)(=O)c3ccccc3Cl)CN2C2CCC2)CC1 [Example 84, (2S,4R)-4-(2-Chloro-benzenesulfonyl)-1-cyclobutyl-pyrrolidine-2-carboxylic acid (1-cyano-cyclopropyl)-amide]
0.26 | 335 | N#CC1(NC(=O)[C@@H]2C[C@@H](S(=O)(=O)c3ccccc3Cl)CN2C(=O)C2(c3ccc(F)cc3)CC2)CC1 [Example 425, (2S,4R)-4-(2-chlorophenylsulfonyl)-N-(1-cyanocyclopropyl)-1-(1-(4-fluorophenyl)-cyclopropanecarbonyl)pyrrolidine-2-carboxamide]
2.4 | 22800 | CC(C)OC(=O)N1C[C@H](S(=O)(=O)c2ccccc2Cl)C[C@H]1C(=O)NC1(C#N)CC1 [Example 97, (2S,4R)-4-(2-Chloro-benzenesulfonyl)-2-(1-cyano-cyclopropylcarbamoyl)-pyrrolidine-1-carboxylic acid Isopropyl Ester]
0.205 | 52100 | Cc1cc(N2C[C@H](S(=O)(=O)c3ccccc3C(F)(F)F)C[C@H]2C(=O)NC2(C#N)CC2)n(C2CCOCC2)n1 [Example 307, (2S,4R)-1-[5-Methyl-2-(tetrahydro-pyran-4-yl)-2H-pyrazol-3-yl]-4-(2-trifluoromethyl-benzenesulfonyl)-pyrrolidine-2-carboxylic acid (1-cyano-cyclopropyl)-amide]
3.4 | ≥ 25000 | N#CC1(NC(=O)[C@@H]2C[C@@H](S(=O)(=O)c3ccc(OC4COC4)cc3Cl)CN2C(=O)C2(C(F)(F)F)CC2)CC1 [Example 201, (2S,4R)-4-[2-Chloro-4-(oxetan-3-yloxy)-benzenesulfonyl]-1-(1-trifluoromethyl-cyclopropanecarbonyl)-pyrrolidine-2-carboxylic acid (1-cyano-cyclopropyl)-amide]
1.5 | ≥ 25000 | N#CC1(NC(=O)[C@@H]2C[C@@H](S(=O)(=O)c3ccc(N4CCC(F)(F)C4)cc3C(F)(F)F)CN2)CC1 [Example 28, (2S,4R)-4-[4-(3,3-Difluoro-pyrrolidin-1-yl)-2-trifluoromethyl-benzenesulfonyl]-pyrrolidine-2-carboxylic acid (1-cyano-cyclopropyl)-amide hydrochloride]
0.3 | ≥ 25000 | CC1(C(=O)N2C[C@H](S(=O)(=O)c3ccccc3C(F)(F)F)C[C@H]2C(=O)NC2(C#N)CC2)CC1 [Example 207, (2S,4R)-1-(1-Methyl-cyclopropanecarbonyl)-4-(2-trifluoromethyl-benzenesulfonyl)-pyrrolidine-2-carboxylic acid (1-cyano-cyclopropyl)-amide]
1.4 | 8800 | N#CC1(NC(=O)[C@@H]2C[C@@H](S(=O)(=O)c3ccccc3Cl)CN2C(=O)c2ccc(F)cc2)CC1 [Example 76, (2S,4R)-4-(2-Chloro-benzenesulfonyl)-1-(4-fluoro-benzoyl)-pyrrolidine-2-carboxylic acid (1-cyano-cyclopropyl)-amide]
1.43 | 40800 | Cc1cc(N2C[C@H](S(=O)(=O)c3ccccc3C(F)(F)F)C[C@H]2C(=O)NC2(C#N)CC2)n(Cc2ccccc2)n1 [Example 319, (2S,4R)-1-(2-Benzyl-5-methyl-2H-pyrazol-3-yl)-4-(2-trifluoromethyl-benzenesulfonyl)-pyrrolidine-2-carboxylic acid (1-cyano-cyclopropyl)-amide]
0.758 | 6380 | N#CC1(NC(=O)[C@@H]2C[C@@H](S(=O)(=O)c3ccc(OCC(F)(F)F)cc3C(F)(F)F)CN2C(=O)C2(CO)CC2)CC1 [Example 451, (2S,4R)-1-(1-Hydroxymethyl-cyclopropanecarbonyl)-4-[4-(2,2,2-trifluoro-ethoxy)-2-trifluoromethyl-benzenesulfonyl]-pyrrolidine-2-carboxylic acid (1-cyano-cyclopropyl)-amide]
0.03 | 1480 | N#CC1(NC(=O)[C@@H]2C[C@@H](S(=O)(=O)c3ccc(OCC(F)(F)F)cc3Cl)CN2C(=O)C2(c3ccccc3)CCCCC2)CC1 [Example 303, (2S,4R)-4-[2-Chloro-4-(2,2,2-trifluoro-ethoxy)-benzenesulfonyl]-1-(1-phenyl-cyclohexanecarbonyl)-pyrrolidine-2-carboxylic acid (1-cyano-cyclopropyl)-amide]
0.7 | ≥ 25000 | Cc1ccc(=O)n(-c2ccc(S(=O)(=O)[C@@H]3C[C@@H](C(=O)NC4(C#N)CC4)N(C(=O)OC(C)(C)C)C3)c(C(F)(F)F)c2)n1 [Example 10, (2S,4R)-2-(1-Cyano-cyclopropylcarbamoyl)-4-[4-(3-methyl-6-oxo-6H-pyridazin-1-yl)-2-trifluoromethyl-benzenesulfonyl]-pyrrolidine-1-carboxylic acid tert-butyl ester]
14.8 | ≥ 25000 | N#CCNC(=O)[C@@H]1C[C@@H](S(=O)(=O)c2ccccc2)CN1CC1CCCCC1 [Example 55, (2S,4R)-4-Benzenesulfonyl-1-cyclohexylmethyl-pyrrolidine-2-carboxylic acid cyanomethyl-amide]
0.29 | 8.06 | N#CC1(NC(=O)[C@@H]2C[C@@H](S(=O)(=O)c3ccc(OCC(F)(F)F)cc3Cl)CN2C(=O)C2(c3ccc(Br)cc3)CC2)CC1 [Example 273, (2S,4R)-1-[1-(4-Bromo-phenyl)-cyclopropanecarbonyl]-4-[2-chloro-4-(2,2,2-trifluoro-ethoxy)-benzenesulfonyl]-pyrrolidine-2-carboxylic acid (1-cyano-cyclopropyl)-amide]
295 | ≥ 25000 | CC(C)(C)OC(=O)N1CCC(N2CC(S(=O)(=O)c3ccccc3C(F)(F)F)CC2C(=O)NC2(C#N)CC2)CC1 (centres unmarked) [Example 364, 4-[2-(1-Cyano-cyclopropylcarbamoyl)-4-(2-trifluoromethyl-benzenesulfonyl)-pyrrolidin-1-yl]-piperidine-1-carboxylic acid tert-butyl ester]
0.4 | 6070 | N#CC1(NC(=O)[C@@H]2C[C@@H](S(=O)(=O)c3ccc(N4CCOCC4)cc3Cl)CN2C(=O)C2(C(F)(F)F)CC2)CC1 [Example 161, (2S,4R)-4-(2-Chloro-4-morpholin-4-yl-benzenesulfonyl)-1-(1-trifluoromethyl-cyclopropanecarbonyl)-pyrrolidine-2-carboxylic acid (1-cyano-cyclopropyl)-amide]
120 | ≥ 25000 | CC(C)(C)OC(=O)N1C[C@@H](S(=O)(=O)c2ccccc2C(F)(F)F)C[C@H]1C(=O)NC1(C#N)CC1 [Example 158, (2S,4S)-2-(1-Cyano-cyclopropylcarbamoyl)-4-(2-trifluoromethyl-benzenesulfonyl)-pyrrolidine-1-carboxylic acid tert.-butyl ester]
0.98 | > 25000 | N#CC1(NC(=O)[C@@H]2C[C@@H](S(=O)(=O)c3ccccc3Cl)CN2c2nnc(C(F)(F)F)s2)CC1 [Example 399]
5.2 | 41400 | Cc1cc(Cl)ccc1S(=O)(=O)[C@@H]1C[C@@H](C(=O)NC2(C#N)CC2)N(C(=O)OC(C)(C)C)C1 [Example 40, (2S,4R)-4-(4-Chloro-2-methyl-benzenesulfonyl)-2-(1-cyano-cyclopropylcarbamoyl)-pyrrolidine-1-carboxylic acid tert-butyl ester]
2.7 | ≥ 25000 | CC(C)(C)OC(=O)N1C[C@H](S(=O)(=O)c2ccc(Br)cc2C(F)(F)F)C[C@H]1C(=O)NC1(C#N)CC1 [Example 7, (2S,4R)-4-(4-Bromo-2-trifluoromethyl-benzenesulfonyl)-2-(1-cyano-cyclopropylcarbamoyl)-pyrrolidine-1-carboxylic acid tert-butyl ester]
60.5 | ≥ 25000 | COCCN1C[C@H](S(=O)(=O)c2ccccc2C(F)(F)F)C[C@H]1C(=O)NC1(C#N)CC1 [Example 110, (2S,4R)-1-(2-Methoxy-ethyl)-4-(2-trifluoromethyl-benzenesulfonyl)-pyrrolidine-2-carboxylic Acid (1-cyano-cyclopropyl)-amide]
38.5 | ≥ 25000 | Cc1cc(N2C[C@H](S(=O)(=O)c3ccccc3C(F)(F)F)C[C@H]2C(=O)NC2(C#N)CC2)n(C2CCNCC2)n1 [Example 407, (2S,4R)-1-(5-Methyl-2-piperidin-4-yl-2H-pyrazol-3-yl)-4-(2-trifluoromethyl-benzenesulfonyl)-pyrrolidine-2-carboxylic acid (1-cyano-cyclopropyl)-amide]
0.33 | 31800 | N#CC1(NC(=O)[C@@H]2C[C@@H](S(=O)(=O)c3ccc(OCC(F)(F)F)cc3Cl)CN2C(=O)C2CC2(F)F)CC1 (stereo partly drawn) [Example 241, (2S,4R)-4-[2-Chloro-4-(2,2,2-trifluoro-ethoxy)-benzenesulfonyl]-1-(2,2-difluoro-cyclopropanecarbonyl)-pyrrolidine-2-carboxylic acid (1-cyano-cyclopropyl)-amide]
3500 | ≥ 25000 | CC(C)CS(=O)(=O)[C@H]1CN[C@H](C(=O)NC2(C#N)CC2)C1 [Example 114, (2S,4R)-4-(2-Methyl-propane-1-sulfonyl)-pyrrolidine-2-carboxylic acid (1-cyano-cyclopropyl)-amide Hydrochloride]
0.26 | 45700 | N#CC1(NC(=O)[C@@H]2C[C@@H](S(=O)(=O)c3ccc(C4CC4)cc3C(F)(F)F)CN2C(=O)C2(C(F)(F)F)CC2)CC1 [Example 256, (2S,4R)-4-(4-Cyclopropyl-2-trifluoromethyl-benzenesulfonyl)-1-(1-trifluoromethyl-cyclopropanecarbonyl)-pyrrolidine-2-carboxylic acid (1-cyano-cyclopropyl)-amide]
